Test results published in US20150265682A1, “THERAPEUTIC METHODS AND COMPOSITIONS FOR TREATING DIABETES” (Orient Europharma Co., Ltd., priority 2014, published 2015).

What was measured:
Type in all cases: in vivo, ICR mice
[1] = test system: normal mice and mice with type 2 DM; assay: Intraperitoneal glucose tolerance test (IPGTT)
Procedure: After three days of acclimatization, the mice had free access to a standard rodent chow (normal mice), a standard rodent chow after single […] streptozotocin (STZ) intraperitoneal injection (T1DM mice), and a fat-rich chow diet and fructose-sweetened water (T2DM mice) for 4 weeks. The induction of Type 1 DM was assessed and confirmed when the mice had plasma glucose levels ≧350 mgdL^−1, accompanied with polyuria, hyperphagia and decreased body weight. The induction Type 2 DM in the mice was assessed by measuring fasting plasma glucose levels and confirmed when plasma glucose level was ≧150 mgdL^−1 after the 4-week induction. The animals were assigned randomly into three groups, with seven animals in each group. In group I, the mice were treated with vehicle, 2% DMSO in normal saline, as the negative control. In group II, the mice were intraperitoneally treated with borapetoside A (0.1-10 mgkg^−1). In group Ill, the positive control, the mice received intraperitoneally metformin (300 mgkg^−1; Sigma Chemical Co., St. Louis, Mo., U.S.A.) or insulin (0.5 IUkg^−1; Insulin Actrapid® HM; Novo Nordisk, Denmark). In the acute study, mice under anesthesia received a single intraperitoneal administration of borapetoside A, negative control, or positive control. In the subacute study, mice received intraperitoneal administrations of borapetoside A, vehicle, or insulin twice a day for seven days.
Blood samples were collected from the orbital vascular plexus of the mice under anesthesia. Blood samples were then centrifuged at 13000 rpm for 5 min, and the plasma samples were collected and kept on ice prior to the assay. The plasma glucose concentration was measured by Glucose Kit Reagent (Biosystems S. A., Barcelona, Spain) following the manufacturer's instructions, and the insulin levels were estimated using mouse insulin ELISA kit (Mercodia AB, Uppsala, Sweden).
The mice were maintained under anesthesia throughout the procedure. Glucose (2.0 gkg^−1) was administered intraperitoneally. Blood samples were collected from the orbital vascular plexus at 0, 30, 60, 120 min. The concentrations of the plasma glucose were measured, and the values of AUC were calculated accordantly.

[2] = test system: soleus muscle of normal, T1DM and T2DM mice; assay: Glycogen content of skeletal muscle (borapetoside C or insulin); conditions: borapetoside C 5 mg/kg i.p., insulin (Actrapid) 0.5 IU/kg i.p.
Procedure: This study was conducted following the University ethical guidelines on animal experimentation and complied with the Guide for the Care and Use of Laboratory Animals published by the US National Institutes of Health (NIH publication no. 85-23, revised 1996). The animal facility was well controlled for temperature (22±1° C.), and humidity (60±5%) and a 12 h/12 h light-dark cycle was maintained with access to food and water ad libitum. Four-week-old male ICR mice were acquired from BioLasco Taiwan Co., Ltd. and maintained at College of Medicine Experimental Animal Center, National Taiwan University. The study was conducted on 8-10 week-old male ICR mice.
(§1) T1DM mice were induced by a known method. In brief, an intraperitoneal injection of streptozotocin (STZ; Sigma Chemical Co.; St. Louis, Mo.) at 150 mg/kg was performed in mice that were fasted for 48 h. The induction of T1DM was assessed and confirmed when the mice had plasma glucose levels ≧350 mg/dL, accompanied with polyuria, hyperphagia and decreased body weight. The control mice group received an injection of vehicle and then carried out for 4 weeks. T2DM mice were induced by maintaining on a fat-rich chow diet and fructose-sweetened water for 4 weeks from the age of 4-5 weeks according to previous methods. The induction T2DM mice were assessed by measuring fasting plasma glucose levels and confirmed when plasma glucose level was ≧150 mg/dL after a 4-week induction.
Glycogen content of skeletal muscles was measured by a known method. In brief, mice were injected with borapetoside C (5.0 mg/kg, interperitoneal) for 60 min or insulin (0.5 IU/kg, interperitoneal.) for 30 min, and the soleus muscle was isolated from anesthetized mice. About 40 mg of muscle sample was dissolved in 1 N KOH at 75° C. for 30 min. The dissolved homogenate was neutralized by glacial acetic acid and then incubated overnight in acetate buffer (0.3 M sodium acetate, pH 4.8) containing amyloglucosidase (Sigma, St. Louis, Mo.). The mixture was then neutralized with 1 N NaOH to stop the reaction. The glycogen contents in the tissue samples were determined as μg of glucose per mg of tissue (wet weight).

[3] = test system: normal, T1DM and T2DM mice; assay: Insulin tolerance test (ITT): activity of lowering plasma glucose (AL); conditions: 30 min after insulin
Procedure: as §1
Blood samples were collected from the orbital vascular plexus of mice under anesthesia with sodium pentobarbital (80 mg/kg, intraperitoneal, Sigma Chemical Co., St. Louis, Mo., USA). Blood samples were then centrifuged at 13000 rpm for 5 min, and the plasma was kept on ice prior to the assay. The plasma glucose concentration was measured using commercial kits following manufacturer's instructions (BioSystems S. A., Barcelona, Spain).
To perform OGTT, mice were fasted overnight, divided into 2 groups and then administered a vehicle control and 5 mg/kg borapetoside C. This was followed by administration of a glucose solution at 2 g/kg via tube feeding. Blood samples were withdrawn from the orbital vascular plexus at intervals of 30, 60, 120, and 150 min after glucose administration. For the ITT, mice were fasted for 3 h. Human insulin (Insulin Actrapid) HM; Novo Nordisk, Denmark) was injected intraperitoneally after an intraperitoneal administration of 0.1 mg/kg borapetoside C for 30 min. Blood samples were collected from the orbital vascular plexus at the timed intervals mentioned above.
Therefore, the effects of borapetoside C on insulin tolerance were tested in this study. The non-diabetic, T1DM, and T2DM mice were injected with insulin at various doses (i.e., 0.1 IU/kg, 0.5 IU/kg, and 1.0 IU/kg) in conjunction with either borapetoside C (0.1 mg/kg) or a vehicle control (Table 3), and their plasma glucose levels were examined before and 30 min after insulin injection. The activity of lowering plasma glucose levels (AL) was calculated by the formula: (Gi−Gt)/Gi×100%, where the Gi was the initial glucose concentration and G1 was the plasma glucose concentration after 30-min treatment with insulin. Insulin reduced the plasma glucose levels in both normal and diabetic mice, and the glucose levels were further decreased when insulin was co-administered with borapetoside C to the mice.

[4] = Normal mice, insulin 0.1 IU/kg with borapetoside C 0.1 mg/kg or vehicle
[5] = Normal mice, insulin 0.5 IU/kg with borapetoside C 0.1 mg/kg or vehicle
[6] = Normal mice, insulin 1.0 IU/kg with borapetoside C 0.1 mg/kg or vehicle
[7] = T1DM mice, insulin 0.1 IU/kg with borapetoside C 0.1 mg/kg or vehicle
[8] = T1DM mice, insulin 0.5 IU/kg with borapetoside C 0.1 mg/kg or vehicle
[9] = T1DM mice, insulin 1.0 IU/kg with borapetoside C 0.1 mg/kg or vehicle
[10] = T2DM mice, insulin 0.1 IU/kg with borapetoside C 0.1 mg/kg or vehicle
[11] = T2DM mice, insulin 0.5 IU/kg with borapetoside C 0.1 mg/kg or vehicle
[12] = T2DM mice, insulin 1.0 IU/kg with borapetoside C 0.1 mg/kg or vehicle

Molecule	increase of plasma glucose level at 30 min in IPGTT, compared to the vehicle group ([1]; normal and type 2 DM mice, borapetoside A 0.1, 1 and 10 mgkg^−1, metformin)	area under the curve (AUC) in IPGTT ([1]; normal mice, 0.1 mgkg^−1)	area under the curve (AUC) in IPGTT ([1]; normal mice, 1 mgkg^−1)	area under the curve (AUC) in IPGTT ([1]; normal mice, 10 mgkg^−1)	area under the curve (AUC) in IPGTT ([1]; type 2 DM bearing mice, 0.1 mgkg^−1)	area under the curve (AUC) in IPGTT ([1]; type 2 DM bearing mice, 1 mgkg^−1)	area under the curve (AUC) in IPGTT ([1]; type 2 DM bearing mice, 10 mgkg^−1)	Glycogen synthesis in skeletal muscle (glycogen content) ([2]; Normal mice)	Glycogen synthesis in skeletal muscle (glycogen content) ([2]; T1DM mice)	Glycogen synthesis in skeletal muscle (glycogen content) ([2]; T2DM mice)	AL (activity of lowering plasma glucose levels) [3, 4] [%]	AL (activity of lowering plasma glucose levels) [3, 5] [%]	AL (activity of lowering plasma glucose levels) [3, 6] [%]	AL (activity of lowering plasma glucose levels) [3, 7] [%]	AL (activity of lowering plasma glucose levels) [3, 8] [%]	AL (activity of lowering plasma glucose levels) [3, 9] [%]	AL (activity of lowering plasma glucose levels) [3, 10] [%]	AL (activity of lowering plasma glucose levels) [3, 11] [%]	AL (activity of lowering plasma glucose levels) [3, 12] [%]
C[C@@]12C[C@@H](c3ccoc3)OC(=O)[C@@H]1C[C@@H]1OC(=O)[C@@]3(O)[C@@H](O[C@@H]4O[C@H](CO)[C@@H](O)[C@H](O)[C@H]4O)CC[C@@H]2[C@@]13C [Borapetoside A, borapetoside A]	significantly suppressed	78.8±3.0 % of vehicle control	69.9±7.1 % of vehicle control	68.9±3.5 % of vehicle control	74.9±4.5 % of vehicle control	71.1±3.2 % of vehicle control	68.9±1.9 % of vehicle control												
COC(=O)C1=CCC[C@H]2[C@]3(C)C[C@@H](c4ccoc4)OC(=O)[C@@H]3C[C@@H](O[C@@H]3O[C@H](CO)[C@@H](O)[C@H](O)[C@H]3O)[C@@]12C [Borapetoside C, borapetoside C]								25.1 ± 1.3 μg of glucose per mg of tissue (wet weight)	23.2 ± 0.7 μg of glucose per mg of tissue (wet weight)	23.3 ± 0.4 μg of glucose per mg of tissue (wet weight)	17.2 ± 1.2	45.7 ± 3.7	64.7 ± 1.8	10.5 ± 1.4	18.9 ± 2.1	32.2 ± 2.1	24.0 ± 1.1	31.6 ± 1.6	42.5 ± 0.8
Insulin: human insulin, Insulin Actrapid HM, a short-acting insulin provided by Novo Nordisk [reference compound]								30.2 ± 2.0 μg of glucose per mg of tissue (wet weight)	30.0 ± 1.0 μg of glucose per mg of tissue (wet weight)	20.2 ± 0.6 μg of glucose per mg of tissue (wet weight)	14.6 ± 0.8	37.5 ± 1.1	56.8 ± 1.9	8.7 ± 1.6	11.5 ± 0.6	24.0 ± 1.3	19.5 ± 1.5	27.5 ± 2.6	32.0 ± 1.1
